The source of these data is ChEMBL document CHEMBL4811321, “Synthesis and biological evaluation of 3,4-dihydro-1H-[1,4] oxazepino [6,5,4-hi] indol-1-ones and 4,6-dihydrooxepino [5,4,3-cd] indol-1(3H)-ones as Mycobacterium tuberculosis inhibitors” (Bioorg Med Chem, 2021).

Values after ≈ are worked out from the molar mass of the structure shown.

Biological target in the first test: not listed separately
Nature of the test: Displacement of UDP-fluorescein from Mycobacterium tuberculosis UDP-galactopyranose mutase by fluorescence polarization assay.
Details: not given
A general note: Polarisation of emitted light reports the rotation of a fluorescent probe.
The molecule `COc1ccc(C#C/C=C2\Cn3cc(I)c4cccc(c43)C(=O)O2)cc1` yielded a Kd of 72.9 µM. The same measure, in the same setting: as for `O=C1O/C(=C/I)Cn2cc(I)c3cccc1c32`, the figure is 138 µM.

A further test deals with Mycobacterium tuberculosis. Put plainly: Antitubercular activity against Mycobacterium tuberculosis mc2 6230 assessed as inhibition of bacterial growth incubated for 7 days by microtiter plate assay. The test is classed as functional. Conditions: mc2 6230, 168 h, time 7 day.
As for `COc1ccc(/C=C2\Cn3cc(I)c4cccc(c43)C(=O)O2)cc1`, the MIC is greater than 100 mg/L. `O=C1OC(CSc2ccccc2)Cc2cn(Cc3ccccc3)c3cccc1c23` (stereo not given): the MIC was greater than 100 mg/L. For the molecule `COc1ccccc1-c1cn(CC2Cc3cn(Cc4ccccc4)c4cccc(c34)C(=O)O2)nn1` (stereo not given), the MIC was greater than 100 mg/L. As to `O=C1O/C(=C/C#Cc2ccccc2)Cn2cc(I)c3cccc1c32`, the MIC stood at 0.4 mg/L (≈ 0.941 µM).

`CC(C)CCC#C/C=C1\Cn2cc(I)c3cccc(c32)C(=O)O1`: the MIC turned out to be 0.2 mg/L (≈ 0.477 µM).

For `O=C1OC(CI)Cc2cn(Cc3ccccc3)c3cccc1c23` (stereo not given), the MIC worked out at 12.5 mg/L (≈ 30 µM). For the molecule `O=C1OC(Cn2cc(-c3ccccc3F)nn2)Cc2cn(Cc3ccccc3)c3cccc1c23` (stereo not given), the MIC was greater than 100 mg/L. Same read-out and setting: as for `CCCCc1cn(CC2Cc3cn(Cc4ccccc4)c4cccc(c34)C(=O)O2)nn1` (stereo not given), the figure is greater than 100 mg/L. As to `O=C1OC(Cn2cc(CCBr)nn2)Cc2cn(Cc3ccccc3)c3cccc1c23` (stereo not given), the MIC worked out at 25 mg/L (≈ 53.7 µM). `COc1cccc(SCC2Cc3cn(Cc4ccccc4)c4cccc(c34)C(=O)O2)c1` (stereo not given): the MIC is greater than 100 mg/L. As for `O=C1OC(Cn2cc(-c3ccc(F)cc3F)nn2)Cc2cn(Cc3ccccc3)c3cccc1c23` (stereo not given), the MIC is greater than 100 mg/L. For `CCOC(=O)CCCc1cn(CC2Cc3cn(Cc4ccccc4)c4cccc(c34)C(=O)O2)nn1` (stereo not given), the MIC is greater than 100 mg/L.

Regarding `COc1ccc(C#C/C=C2\Cn3cc(I)c4cccc(c43)C(=O)O2)cc1`, the MIC came out at 0.2 mg/L (≈ 0.439 µM). Same read-out and setting: as for `CC(C)CCc1cn(CC2Cc3cn(Cc4ccccc4)c4cccc(c34)C(=O)O2)nn1` (stereo not given), the figure is greater than 100 mg/L. On the same count and under the same terms, as for `CCCCCCCc1cn(CC2Cc3cn(Cc4ccccc4)c4cccc(c34)C(=O)O2)nn1` (stereo not given), the figure is greater than 100 mg/L; as for `COc1ccc(-c2cn(CC3Cc4cn(Cc5ccccc5)c5cccc(c45)C(=O)O3)nn2)cc1` (stereo not given), greater than 100 mg/L. Same read-out and setting: to `CCOC(=O)CCCC#C/C=C1\Cn2cc(I)c3cccc(c32)C(=O)O1` belongs 0.4 mg/L (≈ 0.863 µM); to `O=C1O/C(=C/I)Cn2cc(I)c3cccc1c32`, 1.6 mg/L (≈ 3.55 µM); to `O=C1OC(Cn2cc(C3CC3)nn2)Cc2cn(Cc3ccccc3)c3cccc1c23` (stereo not given), greater than 100 mg/L. Consider `O=C1OC(Cn2cc(-c3ccccc3)nn2)Cc2cn(Cc3ccccc3)c3cccc1c23` (stereo not given), for which the MIC is greater than 100 mg/L. Still for that read-out and setting: to `CN(Cc1cn(CC2Cc3cn(Cc4ccccc4)c4cccc(c34)C(=O)O2)nn1)S(C)(=O)=O` (stereo not given) belongs greater than 100 mg/L; to `CCCCC#C/C=C1\Cn2cc(I)c3cccc(c32)C(=O)O1`, 0.4 mg/L (≈ 0.987 µM); to `COc1ccccc1SCC1Cc2cn(Cc3ccccc3)c3cccc(c23)C(=O)O1` (stereo not given), greater than 100 mg/L.

The Kd is a measure of binding affinity in units of concentration. Low values mean tighter binding, high ones weaker binding. What is called MIC is the lowest concentration found to suppress growth.
